From patent publication US20250092016A1, “COMPOUNDS AND COMPOSITIONS FOR THE TREATMENT OF CORONAVIRAL RELATED DISEASES” (priority 2021, published 2025)
Where two headings read alike, the source gives them in different places.

Molecular target: SARS-CoV-2 main protease (M^pro) (Severe acute respiratory syndrome coronavirus 2, UniProt P0DTD1)
Experiment: Rapid-Fire MS Biochemical Assay measuring Mpro activity (5 nM Mpro)
Conditions: Mpro inhibition, 5 μM substrate peptide, 120 min
[1] = Table 1B, read-out: Rapid-Fire Assay IC50
[2] = Rapid-Fire Assay IC50, Table 1B

SMILES	IC50 [1]	IC50 [2]
N#C[C@H]1CN(c2ccc(OC(F)F)cc2F)C(=O)N1c1cncc2ccccc12 (single isomer, unassigned) [Compound 83a]	20 to 200 nM	–
N#C[C@@H]1CN([C@H]2C[C@H](C3CC3)C2)C(=O)N1c1cncc2ccccc12 [Compound 124c, (S)-1-((1r,3S)-3-cyclopropylcyclobutyl)-3-(isoquinolin-4-yl)-2-oxoimidazolidine-4-carbonitrile]	> 1000 nM	–
C[C@H]1[C@@H](C#N)N(c2cncc3ccccc23)C(=O)N1c1cccc(Cl)c1 (single isomer, unassigned) [Compound 43b]	200 to 1000 nM	–
N#C[C@H]1CN(c2ccnc(C(F)(F)F)c2)C(=O)N1c1cncc2ccccc12 (single isomer, unassigned) [Compound 57a]	< 20 nM	–
C[C@]1(C#N)CN(c2cccc(Cl)c2)C(=O)N1c1cncc2ccccc12 (single isomer, unassigned) [Compound 40a]	200 to 1000 nM	–
COc1ccc(C#N)cc1N1CC(C#N)N(c2cncc3ccccc23)C1=O (racemic) [Compound 15, 1-(5-cyano-2-methoxyphenyl)-3-(isoquinolin-4-yl)-2-oxoimidazolidine-4-carbonitrile]	< 20 nM	–
N#C[C@H]1CN(c2cc(C(F)(F)F)cnn2)C(=O)N1c1cncc2ccccc12 (single isomer, unassigned) [Compound 30a]	< 20 nM	–
N#CC1CN(c2ccc(F)c(F)c2)C(=O)N1c1cncc2ccccc12 (racemic) [Compound 72, 1-(3,4-difluorophenyl)-3-(isoquinolin-4-yl)-2-oxoimidazolidine-4-carbonitrile]	< 20 nM	–
N#C[C@@H]1CN(c2ccc(OC(F)(F)F)cc2)C(=O)N1c1cncc2ccccc12 (single isomer, unassigned) [Compound 91b]	> 1000 nM	–
N#C[C@@H]1CN(c2cnc(C(F)(F)F)cn2)C(=O)N1c1cncc2ccccc12 (single isomer, unassigned) [Compound 32b]	> 1000 nM	–
N#C[C@H]1CN(c2ccccc2F)C(=O)N1c1cncc2ccccc12 (single isomer, unassigned) [Compound 56a]	20 to 200 nM	–
Cc1c[nH]c(N2CC(C#N)N(c3cncc4ccccc34)C2=O)n1 (racemic) [Compound 118, 3-(isoquinolin-4-yl)-1-(4-methyl-1 H-imidazol-2-yl)-2-oxoimidazolidine-4-carbonitrile]	200 to 1000 nM	–
N#C[C@H]1CN(C2CN(S(=O)(=O)C3CC3)C2)C(=O)N1c1cncc2ccccc12 (single isomer, unassigned) [Compound 131a]	–	20 to 200 nM
CC(C)n1cc(N2CC(C#N)N(c3cncc4ccccc34)C2=O)cn1 (racemic) [Compound 64, 1-(1-isopropyl-1H-pyrazol-4-yl)-3-(isoquinolin-4-yl)-2-oxoimidazolidine-4-carbonitrile]	20 to 200 nM	–
COc1cnc(C(F)(F)F)cc1N1C[C@@H](C#N)N(c2cncc3ccccc23)C1=O (single isomer, unassigned) [Compound 14b]	> 1000 nM	–
Cc1ccc(C(F)(F)F)cc1N1C[C@H](C#N)N(c2cncc3ccccc23)C1=O (single isomer, unassigned) [Compound 24a]	< 20 nM	–
N#C[C@H]1CN(c2nc(Cl)c[nH]2)C(=O)N1c1cncc2ccccc12 (single isomer, unassigned) [Compound 119a]	20 to 200 nM	–
N#C[C@H]1CN(C23CC(C(F)(F)F)(C2)C3)C(=O)N1c1cncc2ccccc12 (single isomer, unassigned) [Compound 137a]	< 20 nM	–

SMILES	IC50 [1]	IC50 [2]
N#C[C@@H]1CN(c2ccc(OC(F)F)cc2F)C(=O)N1c1cncc2ccccc12 (single isomer, unassigned) [Compound 83b]	> 1000 nM	–
N#C[C@@H]1CN(c2cccc(C(F)F)c2)C(=O)N1c1cncc2ccccc12 (single isomer, unassigned) [Compound 22b]	> 1000 nM	–
CC(C)[C@H]1C[C@@H](N2C[C@H](C#N)N(c3cncc4ccccc34)C2=O)C1 [Compound 123a, (R)-1-((1s,3S)-3-isopropylcyclobutyl)-3-(isoquinolin-4-yl)-2-oxoimidazolidine-4-carbonitrile]	< 20 nM	–
CC(C)(O)c1cccc(N2C[C@H](C#N)N(c3cncc4ccccc34)C2=O)c1 (single isomer, unassigned) [Compound 69a]	20 to 200 nM	–
N#C[C@@H]1CN(c2cccc3cn[nH]c23)C(=O)N1c1cncc2ccccc12 (single isomer, unassigned) [Compound 63b]	> 1000 nM	–
Cc1ccnc(N2C[C@H](C#N)N(c3cncc4ccccc34)C2=O)n1 (single isomer, unassigned) [Compound 53a]	200 to 1000 nM	–
N#CC1CN(C2CC3(C2)CC(F)(F)C3)C(=O)N1c1cncc2ccccc12 (racemic) [Compound 127, 1-(6,6-difluorospiro[3.3]heptan-2-yl)-3-(isoquinolin-4-yl)-2-oxoimidazolidine-4-carbonitrile]	< 20 nM	–
N#C[C@H]1CN(C2CC3(C2)CC(F)(F)C3)C(=O)N1c1cncc2ccccc12 (single isomer, unassigned) [Compound 127a]	< 20 nM	–
N#C[C@H]1CN([C@H]2C[C@@H](C(F)(F)F)C2)C(=O)N1c1cncc2ccccc12 [Compound 45b, (R)-3-(isoquinolin-4-yl)-2-oxo-1-((1s,3S)-3-(trifluoromethyl)cyclobutyl)imidazolidine-4-carbonitrile]	200 to 1000 nM	–
CC(C)(C)CN1C[C@@H](C#N)N(c2cncc3ccccc23)C1=O (single isomer, unassigned) [Compound 140b]	> 1000 nM	–
N#C[C@H]1CN(c2ncc(Cl)cn2)C(=O)N1c1cncc2ccccc12 (single isomer, unassigned) [Compound 16a]	< 20 nM	–
N#CC1CN(c2cc(C(F)(F)F)ncc2Cl)C(=O)N1c1cncc2ccccc12 (racemic) [Compound 70-1, 1-(5-chloro-2-(trifluoromethyl)pyridin-4-yl)-3-(isoquinolin-4-yl)-2-oxoimidazolidine-4-carbonitrile]	20 to 200 nM	–
N#C[C@H]1CN(c2cnc(C(F)(F)F)c(F)c2)C(=O)N1c1cncc2ccccc12 (single isomer, unassigned) [Compound 77a]	< 20 nM	–
N#C[C@H]1CN(C2CCC(F)(F)C2)C(=O)N1c1cncc2ccccc12 (single isomer, unassigned) [Compound 141a, (R)-1-((S)-3,3-difluorocyclopentyl)-3-(isoquinolin-4-yl)-2-oxoimidazolidine-4-carbonitrile or (R)-1-((R)-3,3-difluorocyclopentyl)-3-(isoquinolin-4-yl)-2-oxoimidazolidine-4-carbonitrile]	20 to 200 nM	–
Cc1ncc(C(F)(F)F)cc1N1C[C@H](C#N)N(c2cncc3ccccc23)C1=O (single isomer, unassigned) [Compound 88a]	< 20 nM	–
Cc1cc(N2C[C@@H](C#N)N(c3cncc4ccccc34)C2=O)cnc1C (single isomer, unassigned) [Compound 98b]	> 1000 nM	–
N#C[C@@H]1CN([C@@H]2CCN(C(=O)CO)C2)C(=O)N1c1cncc2ccccc12 (single isomer, unassigned) [Compound 25b]	> 1000 nM	–
N#CC1CN(C2CCC(F)CC2)C(=O)N1c1cncc2ccccc12 (single isomer, unassigned) [Compound 121b]	–	< 20 nM
